Source: patent US8530489B2 (Vertex Pharmaceuticals Incorporated, priority 2006, dated 2013)

Molecular target: PLK1 (Homo sapiens, UniProt P53350)
Assay: PLK1 Inhibition Assay I (radioactive-phosphate incorporation)
Type: biochemical
Conditions: Ki(app); PLK1 Inhibition Assay I or II (table does not say which)
Outline: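 Ki(app) values came from non-linear regression of initial rates after background subtraction, with phosphopeptide measured by phosphocellulose filter binding and scintillation counting. PLK1 at 2 nM was preincubated with compound (typically from 10 μM, 2-fold dilutions) for 10 min, then run 240 min at 25° C with 350 μM [γ-33P]ATP and 450 μM peptide substrate in HEPES pH 7.5 buffer.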

Chain of PLK1 (P53350 whole entry): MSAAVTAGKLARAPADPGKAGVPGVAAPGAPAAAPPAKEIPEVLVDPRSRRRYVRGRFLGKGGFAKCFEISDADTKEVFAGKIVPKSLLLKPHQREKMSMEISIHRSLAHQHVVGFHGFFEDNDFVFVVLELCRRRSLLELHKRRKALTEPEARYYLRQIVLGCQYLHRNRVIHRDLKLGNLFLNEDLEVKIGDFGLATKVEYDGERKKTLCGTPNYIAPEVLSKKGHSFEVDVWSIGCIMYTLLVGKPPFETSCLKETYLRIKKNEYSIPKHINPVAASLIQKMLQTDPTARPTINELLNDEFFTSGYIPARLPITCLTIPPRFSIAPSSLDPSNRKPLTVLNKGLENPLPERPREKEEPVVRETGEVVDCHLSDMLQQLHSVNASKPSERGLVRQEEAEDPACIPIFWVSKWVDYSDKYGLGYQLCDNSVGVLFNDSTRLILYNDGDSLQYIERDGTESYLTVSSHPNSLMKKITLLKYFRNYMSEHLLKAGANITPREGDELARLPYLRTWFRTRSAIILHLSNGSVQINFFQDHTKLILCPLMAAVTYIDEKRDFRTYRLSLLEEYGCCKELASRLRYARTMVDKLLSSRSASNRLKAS

C[C@@H](Nc1ncc(C#N)c(-c2c[nH]c3ncc(C(F)(F)F)cc23)n1)C1CCN(C(=O)C(O)CN)CC1 (stereo partly drawn) [Compound I-260, 2-((1R)-1-(1-(3-amino-2-hydroxypropanoyl)piperidin-4-yl)ethylamino)-4-(5-(trifluoromethyl)-1H-pyrrolo[2,3-b]pyridin-3-yl)pyrimidine-5-carbonitrile] gave a Ki of less than 3 nM.

C[C@@H](Nc1ncc(C#N)c(-c2c[nH]c3ncc(C(F)(F)F)cc23)n1)[C@H]1CC[C@H](N2CCN(C)CC2)CC1 [Compound I-261, 2-((R)-1-((1r,4R)-4-(4-methylpiperazin-1-yl)cyclohexyl)ethylamino)-4-(5-(trifluoromethyl)-1H-pyrrolo[2,3-b]pyridin-3-yl)pyrimidine-5-carbonitrile] gave a Ki of less than 3 nM.

In the case of C[C@@H](Nc1ncc(C#N)c(-c2c[nH]c3ncc(C(F)(F)F)cc23)n1)C1CCN(C(=O)[C@H]2C[C@@H](O)CN2)CC1 [Compound I-262, 2-((R)-1-(1-((2R,4R)-4-hydroxypyrrolidine-2-carbonyl)piperidin-4-yl)ethylamino)-4-(5-(trifluoromethyl)-1H-pyrrolo[2,3-b]pyridin-3-yl)pyrimidine-5-carbonitrile], the Ki is reported as less than 3 nM.

C[C@@H](Nc1ncc(C#N)c(-c2c[nH]c3ncc(C(F)(F)F)cc23)n1)C1CCN(C(=O)[C@H]2C[C@H](O)CN2)CC1 [Compound I-263, 2-((R)-1-(1-((2R,4S)-4-hydroxypyrrolidine-2-carbonyl)piperidin-4-yl)ethylamino)-4-(5-(trifluoromethyl)-1H-pyrrolo[2,3-b]pyridin-3-yl)pyrimidine-5-carbonitrile] was tested, and the Ki was less than 3 nM.

In the case of C[C@@H](Nc1ncc(C#N)c(-c2c[nH]c3ncc(C(F)(F)F)cc23)n1)[C@H]1CC[C@H](NC(=O)CN)CC1 [Compound I-264, 2-amino-N-((1R,4r)-4-((1R)-1-(5-cyano-4-(5-(trifluoromethyl)-1H-pyrrolo[2,3-b]pyridin-3-yl)pyrimidin-2-ylamino)ethyl)cyclohexyl)acetamide], the Ki is reported as less than 3 nM.

Molecule C[C@@H](O)C(=O)N[C@H]1CC[C@H]([C@@H](C)Nc2ncc(C#N)c(-c3c[nH]c4ncc(C(F)(F)F)cc34)n2)CC1 [Compound I-265, Trans-(2R)—N-(4-((1R)-1-(5-cyano-4-(5-(trifluoromethyl)-1H-pyrrolo[2,3-b]pyridin-3-yl)pyrimidin-2-ylamino)ethyl)cyclohexyl)-2-hydroxypropanamide] has a Ki of less than 3 nM.

CC(Nc1ncc(C#N)c(-c2c[nH]c3ncc(C(F)(F)F)cc23)n1)c1ccc(C2(O)CCN(C)CC2)nc1 (stereo not shown) [Compound I-266, 2-(1-(6-(4-hydroxy-1-methylpiperidin-4-yl)pyridin-3-yl)ethylamino)-4-(5-(trifluoromethyl)-1H-pyrrolo[2,3-b]pyridin-3-yl)pyrimidine-5-carbonitrile] showed a Ki of less than 3 nM.

In the case of CC(Nc1ncc(C#N)c(-c2c[nH]c3ncc(C(F)(F)F)cc23)n1)[C@H]1C[C@H](O)C1 (stereo partly drawn) [Compound I-269, 2-((S)-1-((1r,3S)-3-hydroxycyclobutyl)ethylamino)-4-(5-(trifluoromethyl)-1H-pyrrolo[2,3-b]pyridin-3-yl)pyrimidine-5-carbonitrile], the Ki is reported as 3 to 40 nM.

Work on CC(Nc1ncc(C#N)c(-c2c[nH]c3ncc(C(F)(F)F)cc23)n1)[C@H]1C[C@@H](O)C1 (stereo partly drawn) [Compound I-270, 2-((S)-1-((1s,3R)-3-hydroxycyclobutyl)ethylamino)-4-(5-(trifluoromethyl)-1H-pyrrolo[2,3-b]pyridin-3-yl)pyrimidine-5-carbonitrile] yielded a Ki of less than 3 nM.

CC(Nc1ncc(C#N)c(-c2c[nH]c3ncc(C(F)(F)F)cc23)n1)c1ccc(O[C@@H]2CCN(C)C2)nc1 (stereo partly drawn) [Compound I-271, 2-(1-(6-((R)-1-methylpyrrolidin-3-yloxy)pyridin-3-yl)ethylamino)-4-(5-(trifluoromethyl)-1H-pyrrolo[2,3-b]pyridin-3-yl)pyrimidine-5-carbonitrile] gave a Ki of 3 to 40 nM.

C[C@@H](Nc1ncc(C#N)c(-c2c[nH]c3ncc(C(F)(F)F)cc23)n1)c1ccc(N[C@H]2CCN(C)C2)nc1 [Compound I-280, 2-(1-(6-((S)-1-methylpyrrolidin-3-ylamino)pyridin-3-yl)ethylamino)-4-(5-(trifluoromethyl)-1H-pyrrolo[2,3-b]pyridin-3-yl)pyrimidine-5-carbonitrile] was tested, and the Ki was 3 to 40 nM.

With C[C@@H](Nc1ncc(C#N)c(-c2c[nH]c3ncc(C(F)(F)F)cc23)n1)c1ccc(N(C)CCN(C)C)nc1 [Compound I-282, 2-((R)-1-(6-((2-(dimethylamino)ethyl)(methyl)amino)pyridin-3-yl)ethylamino)-4-(5-(trifluoromethyl)-1H-pyrrolo[2,3-b]pyridin-3-yl)pyrimidine-5-carbonitrile] the Ki was less than 3 nM.

Molecule C[C@@H](Nc1ncc(C#N)c(-c2c[nH]c3ncc(C(F)(F)F)cc23)n1)c1ccc(N(C)CCCN(C)C)nc1 [Compound I-283, 2-((R)-1-(6-((3-(dimethylamino)propyl)(methyl)amino)pyridin-3-yl)ethylamino)-4-(5-(trifluoromethyl)-1H-pyrrolo[2,3-b]pyridin-3-yl)pyrimidine-5-carbonitrile] has a Ki of 3 to 40 nM.

CC(C)N1CCN(c2ccc([C@@H](C)Nc3ncc(C#N)c(-c4c[nH]c5ncc(C(F)(F)F)cc45)n3)cn2)CC1 [Compound I-284, 2-((R)-1-(6-(4-isopropylpiperazin-1-yl)pyridin-3-yl)ethylamino)-4-(5-(trifluoromethyl)-1H-pyrrolo[2,3-b]pyridin-3-yl)pyrimidine-5-carbonitrile] gave a Ki of less than 3 nM.

CCN1CCN(c2ccc([C@@H](C)Nc3ncc(C#N)c(-c4c[nH]c5ncc(C(F)(F)F)cc45)n3)cn2)CC1 [Compound I-285, 2-((R)-1-(6-(4-ethylpiperazin-1-yl)pyridin-3-yl)ethylamino)-4-(5-(trifluoromethyl)-1H-pyrrolo[2,3-b]pyridin-3-yl)pyrimidine-5-carbonitrile] showed a Ki of less than 3 nM.

Molecule C[C@@H](Nc1ncc(C#N)c(-c2c[nH]c3ncc(C(F)(F)F)cc23)n1)c1ccc(N2CC[C@@H](N(C)C)C2)nc1 [Compound I-286, 2-((R)-1-(6-((R)-3-(dimethylamino)pyrrolidin-1-yl)pyridin-3-yl)ethylamino)-4-(5-(trifluoromethyl)-1H-pyrrolo[2,3-b]pyridin-3-yl)pyrimidine-5-carbonitrile] has a Ki of 3 to 40 nM.

Molecule CCN(CC)CCN(C)c1ccc([C@@H](C)Nc2ncc(C#N)c(-c3c[nH]c4ncc(C(F)(F)F)cc34)n2)cn1 [Compound I-287, 2-((R)-1-(6-((2-(diethylamino)ethyl)(methyl)amino)pyridin-3-yl)ethylamino)-4-(5-(trifluoromethyl)-1H-pyrrolo[2,3-b]pyridin-3-yl)pyrimidine-5-carbonitrile] has a Ki of 3 to 40 nM.

C[C@@H](Nc1ncc(C#N)c(-c2c[nH]c3ncc(C(F)(F)F)cc23)n1)c1ccc(N2CC[C@H](N3CCCC3)C2)nc1 [Compound I-288, 2-((R)-1-(6-((S)-1,3′-bipyrrolidin-1′-yl)pyridin-3-yl)ethylamino)-4-(5-(trifluoromethyl)-1H-pyrrolo[2,3-b]pyridin-3-yl)pyrimidine-5-carbonitrile] gave a Ki of 3 to 40 nM.

CNCCCN(C)c1ccc([C@@H](C)Nc2ncc(C#N)c(-c3c[nH]c4ncc(C(F)(F)F)cc34)n2)cn1 [Compound I-289, 2-((R)-1-(6-(methyl(3-(methylamino)propyl)amino)pyridin-3-yl)ethylamino)-4-(5-(trifluoromethyl)-1H-pyrrolo[2,3-b]pyridin-3-yl)pyrimidine-5-carbonitrile] gave a Ki of less than 3 nM.

For C[C@@H](Nc1ncc(C#N)c(-c2c[nH]c3ncc(C(F)(F)F)cc23)n1)c1ccc(N2CC[C@H](N(C)C)C2)nc1 [Compound I-290, 2-((R)-1-(6-((S)-3-(dimethylamino)pyrrolidin-1-yl)pyridin-3-yl)ethylamino)-4-(5-(trifluoromethyl)-1H-pyrrolo[2,3-b]pyridin-3-yl)pyrimidine-5-carbonitrile], the Ki was 3 to 40 nM.

Molecule C[C@@H](Nc1ncc(C#N)c(-c2c[nH]c3ncc(C(F)(F)F)cc23)n1)c1ccc(N2CCN3CCC[C@H]3C2)nc1 [Compound I-291, 2-((R)-1-(6-((S)-hexahydropyrrolo[1,2-a]pyrazin-2(1H)-yl)pyridin-3-yl)ethylamino)-4-(5-(trifluoromethyl)-1H-pyrrolo[2,3-b]pyridin-3-yl)pyrimidine-5-carbonitrile] has a Ki of less than 3 nM.

Molecule C[C@@H](Nc1ncc(C#N)c(-c2c[nH]c3ncc(C(F)(F)F)cc23)n1)c1ccc(N2CCCN(C)CC2)nc1 [Compound I-292, 2-((R)-1-(6-(4-methyl-1,4-diazepan-1-yl)pyridin-3-yl)ethylamino)-4-(5-(trifluoromethyl)-1H-pyrrolo[2,3-b]pyridin-3-yl)pyrimidine-5-carbonitrile] has a Ki of less than 3 nM.

Work on CC(Nc1ncc(C#N)c(-c2c[nH]c3ncc(C(F)(F)F)cc23)n1)c1ccc(N[C@@H]2CCN(C)C2)nc1 (stereo partly drawn) [Compound I-293, 2-(1-(6-((R)-1-methylpyrrolidin-3-ylamino)pyridin-3-yl)ethylamino)-4-(5-(trifluoromethyl)-1H-pyrrolo[2,3-b]pyridin-3-yl)pyrimidine-5-carbonitrile] yielded a Ki of less than 3 nM.

C[C@@H](Nc1ncc(C#N)c(-c2c[nH]c3ncc(C(F)(F)F)cc23)n1)c1ccc(N2CCC(N(C)C)CC2)nc1 [Compound I-294, 2-((R)-1-(6-(4-(dimethylamino)piperidin-1-yl)pyridin-3-yl)ethylamino)-4-(5-(trifluoromethyl)-1H-pyrrolo[2,3-b]pyridin-3-yl)pyrimidine-5-carbonitrile] gave a Ki of 3 to 40 nM.

In the case of C[C@@H](Nc1ncc(C#N)c(-c2c[nH]c3ncc(C(F)(F)F)cc23)n1)c1ccc(N(C)C2CCN(C)C2)nc1 (stereo partly drawn) [Compound I-295, 2-((1R)-1-(6-(methyl(1-methylpyrrolidin-3-yl)amino)pyridin-3-yl)ethylamino)-4-(5-(trifluoromethyl)-1H-pyrrolo[2,3-b]pyridin-3-yl)pyrimidine-5-carbonitrile], the Ki is reported as less than 3 nM.
